Consider three molecules from PMC4602232, “Structural basis for recognition of Emi2 by Polo-like kinase 1 and development of peptidomimetics blocking oocyte maturation and fertilization” (Scientific Reports, 2015).

Entries after “also recorded” stand apart in the source; their conditions may differ. Non-standard residues stand in square brackets, D forms with d. No end group written: not given here. pT = C[C@@H](OP(=O)(O)O)[C@H](N)C(=O)O

The test system of test [1] is mouse oocyte maturation. To be noted: cited from earlier work. The source says:
In Xenopus and in mice, the general scheme of calcium-mediated signal transduction has been well established, but the detailed molecular mechanism has been elusive. For instance, Plk1 is involved in Emi2 phosphorylation and destabilization, but the mechanism of binding of Plk1 to Emi2 has not yet been determined. Plk1 is known to be involved in various cell cycle-related processes, and recently it received attention as a target of anticancer treatments.

The subject of test [2] is Emi2^1–300-mCherry reporter in MII oocytes. Briefly: Emi2^1–300-mCherry degradation after parthenogenetic activation (time-lapse microscopy). In kind it is cell-based, mouse. Particulars: SrCl2 treatment in the presence of 100 nM BI2536; n = 3 oocytes. From the text: pRN3-Emi2^1−300-mCherry plasmids containing the Plk1 recognition site and a degron for a SCF family ubiquitin ligase were constructed from synthetic Emi2^1–300 gene fragments and subcloned into the pRN3 vector as an mCherry fusion by means of Gibson Assembly[50]. The plasmids were linearized by digestion with SfiI; then cRNA was synthesized with T3 mMessage mMachine (Life Technologies). In vitro transcripts were purified by phenol-chloroform extraction and isopropyl alcohol precipitation and stored at −80 °C until use.
GV stage oocytes were injected with various peptidomimetics at 300 μM in a 50% aqueous solution (w/v) of dimethyl sulfoxide. Peptidomimetics were injected into oocyte by means of a Eppendorf Femto Jet (Eppendorf AG, Hamburg, Germany) and a Nikon Diaphot ECLIPSE TE300 inverted microscope (Nikon UK Ltd., Kingston upon Thames, Surrey, UK) equipped with a Narishige MM0-202N hydraulic three-dimensional micromanipulator (Narishige Inc., Sea Cliff, NY, USA) and subjected to in vitro maturation as described above. As a control, the BG34 reagent with threonine residues instead of phosphothreonine[35] was injected into oocytes at 300 μM. To test the oocytes for parthenogenetic activation, we collected mature MII oocytes and injected them with various reagents as described above for GV oocytes. […]

The subject of test [3] is bromodomain BRD4. Particulars: cited from earlier work. From the text: On the other hand, due to the high degree of similarity among kinase domains’ ATP-binding pockets, achieving good specificity is a difficult task. […] Because PBD exists only in the Plk family (Plk1 through Plk4), targeting of this site can result in high specificity along with enhanced binding affinity; these properties may faci ...

The target in test [4] is T1, Mouse Plk1 Polo box domain (Plk1-PBD, amino acid residues 367-603) (mouse, UniProt Q07832 367-603).
T1 construct: Polo-like kinase 1 (Plk1), mouse, polo box domain, residues 367-603; TEV site ENLYFQ/S between the His6 tag and the PBD; cleavage between Q and S should leave a Ser before residue 367 (surmised); also called polo box domain of Polo-like kinase 1; source: E. coli BL21 (DE3), purified (Ni-NTA, TEV digestion, Superdex 75 gel filtration); not shown: His6, N-terminal, cleaved
Briefly: ITC; phosphorylated peptide (1.2 mM) injected into Plk1-PBD (0.1 mM) in the cell; 15 °C; 20 mM Tris-Cl pH 8.0, 300 mM NaCl, 3 mM DTT; one-site binding model. To be noted: both partners purified. In general terms: ITC needs no label: the signal is the heat of the interaction.

T1 sequence (Q07832 367-603): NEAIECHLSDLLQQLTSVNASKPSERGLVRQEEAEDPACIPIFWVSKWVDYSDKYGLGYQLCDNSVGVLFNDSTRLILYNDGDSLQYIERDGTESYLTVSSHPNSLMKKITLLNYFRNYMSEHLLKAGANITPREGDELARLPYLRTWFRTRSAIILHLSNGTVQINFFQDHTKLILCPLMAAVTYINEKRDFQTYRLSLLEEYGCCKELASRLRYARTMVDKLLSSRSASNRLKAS

Regarding `CC[C@@H]1C(=O)N(C)c2cnc(Nc3ccc(C(=O)NC4CCN(C)CC4)cc3OC)nc2N1C1CCCC1` [BI2536], the “mouse oocyte maturation (in words)” value in test [1] was “impairs mouse oocyte maturation”. Further, the “decrease of Emi2-mCherry fluorescence after parthenogenetic activation (in words)” value in test [2] is reported as “did not cause any reduction in fluorescence even after 100 min; also recorded: blocks Emi2 degradation after parthenogenetic activation by SrCl2”. Further, the “binding and inhibition of BRD4 (in words)” value in test [3] was “bind and inhibit bromodomain BRD4 at nanomolar concentration”.

B1: Phosphorylated Emi2 169-177 peptide (phospho-Thr176) (peptide)
peptide: FSQHKTS[pT]I-NH2
notes: Made on Rink amide resin, so probably a C-terminal amide (surmised); source: synthetic peptide (Fmoc SPPS, Rink amide resin, RP-HPLC)
As a reminder, the Kd is the concentration at which binding is half-saturated. The low end stands for a tighter complex, the high end for a looser complex. Turning to B1, in test [4], the Kd turned out to be 29.6 µM and the “stoichiometry N” value is 0.92 ratio of Emi2^169–177 to Plk1-PBD.

B2: Phosphorylated Emi2 146-177 peptide (phospho-Thr152 and phospho-Thr176) (peptide, UniProt Q8CDI2 146-177, looked up)
peptide: SPLVTS[pT]IKTEDVVSNSQNSRLHFSQHKTS[pT]I
notes: as for B1
As for B2, in test [4], the “stoichiometry N” value was 0.47 ratio of Emi2^146–177 to Plk1-PBD.
